In US8088814B2, “Methods and compositions for the treatment of psychiatric disorders” (priority 2001, dated 2012):
Like-named read-outs stand apart in the source and are kept apart here.

Assays:
schizophrenic patients = test system: schizophrenic patients
Experimental: The statistics were performed according to the criterion of “last observation carried forward” (LOCF), i.e., the last PANSS scores of the patients who dropped out before the end of the study were carried forward to all subsequent observation days. For the comparison of the main efficacy parameter, the mean change in the PANSS between the two treatment groups, t-tests for independent samples were employed. […] For all other comparisons, two-tailed t-tests were used.

Compound: Cc1nc2n(c(=O)c1CCN1CCC(c3noc4cc(F)ccc34)CC1)CCCC2O (stereo not drawn) [9-OH-risperidone]
- differences in the plasma levels between risperidone-celecoxib and risperidone-placebo treatment (human, in vivo): without statistical significance

Compound: risperidone [placebo and risperidone]
- PANSS global score (schizophrenic patients; at the start of the study): 37.2±7.1
- PANSS negative score (schizophrenic patients; at the start of the study): 21.1±5.5
- PANSS total score (schizophrenic patients; at the start of the study): 75.4±12.9
- PANSS positive score (schizophrenic patients; week 0 (start of the study), mean ± SD, 25 patients per group): 17.2 ± 4.6
- PANSS positive score (schizophrenic patients; week 0 (start of the study), mean ± SD, 25 patients per group, listed as risperidone-placebo): 17.2±4.6
- PANSS positive score (schizophrenic patients; week 1, LOCF): 16.2 ± 4.6
- PANSS positive score (schizophrenic patients; week 2, LOCF): 15 ± 4.5
- PANSS positive score (schizophrenic patients; week 3, LOCF): 14.5 ± 4.6
- PANSS positive score (schizophrenic patients; week 4, LOCF): 14.2 ± 4.4
- PANSS positive score (schizophrenic patients; week 5, LOCF): 13.3 ± 4.4
- differences in the plasma levels between risperidone-celecoxib and risperidone-placebo treatment (plasma, during the study (FIG. 4)): without statistical significance

Compound: Cc1ccc(-c2cc(C(F)(F)F)nn2-c2ccc(S(N)(=O)=O)cc2)cc1 [celecoxib]
- treatment of depressive states (schizophrenic patients; add-on celecoxib therapy in schizophrenic patients): useful
- PANSS items lack of contact, emotional isolation, passive-apathic isolation, social withdrawal, depression, motor retardation (schizophrenic patients; detailed item analysis, good celecoxib-responders vs placebo group, add-on to risperidone): therapeutic effects
- factor analysis: items subsumed under the label agitation (schizophrenic patients; response to celecoxib but not to placebo, add-on to risperidone): good therapeutic response
